Experimental data taken from the supplement of paper PMC10307832.

Legend:
Experiment in all cases: relative viability (nuclei count vs DMSO), 5 days (fraction); higher = more cells survive
CAL-12T = test system: CAL-12T
Summary of the method: (§1)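 Relative viability is defined as nuclei in treated wells over nuclei in vehicle wells. Duplicate plates were run and medians reported. Lung cancer cell lines in 1536-well plates were dosed by pin tool one day after seeding, with one drug or with a fixed anchor-drug dose plus five library-drug doses (not always all listed) in √10 steps, and nuclei were counted after 5 days.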

EKVX = test system: EKVX
Summary of the method: as §1

H3255 = test system: H3255
Summary of the method: as §1

HCC-15 = test system: HCC-15
Summary of the method: as §1

HCC-827 = test system: HCC-827
Summary of the method: as §1

LCLC-97TM1 = test system: LCLC-97TM1
Summary of the method: as §1

LK-2 = test system: LK-2
Summary of the method: as §1

NCI-H1355 = test system: NCI-H1355
Summary of the method: as §1

NCI-H1650 = test system: NCI-H1650
Summary of the method: as §1

NCI-H1734 = test system: NCI-H1734
Summary of the method: as §1

NCI-H1755 = test system: NCI-H1755
Summary of the method: as §1

NCI-H1975 = test system: NCI-H1975
Summary of the method: as §1

NCI-H2228 = test system: NCI-H2228
Summary of the method: as §1

NCI-H2342 = test system: NCI-H2342
Summary of the method: as §1

NCI-H2405 = test system: NCI-H2405
Summary of the method: as §1

NCI-H322M = test system: NCI-H322M
Summary of the method: as §1

NCI-H520 = test system: NCI-H520
Summary of the method: as §1

NCI-H661 = test system: NCI-H661
Summary of the method: as §1

PC-14 = test system: PC-14
Summary of the method: as §1

PC-3 [JPC-3] = test system: PC-3 [JPC-3]
Summary of the method: as §1

RERF-LC-KJ = test system: RERF-LC-KJ
Summary of the method: as §1

For Nc1ccn([C@@H]2O[C@H](CO)[C@@H](O)[C@@H]2O)c(=O)n1 [Cytarabine] + Cc1cc(Nc2cc(N3CCN(C)CC3)nc(Sc3ccc(NC(=O)C4CC4)cc3)n2)n[nH]1 [Tozasertib] (partner 0.1 µM), the relative viability (CAL-12T; first compound 0.005 µM) was 0.249, the relative viability (CAL-12T; first compound 0.01581 µM) was 0.323 and the relative viability (CAL-12T; first compound 0.05 µM) was 0.27. It also gave a relative viability (CAL-12T; first compound 0.1581 µM) of 0.303, a relative viability (CAL-12T; first compound 0.5 µM) of 0.2 and a relative viability (EKVX; first compound 0.005 µM) of 0.326. For the same compound, the relative viability (EKVX; first compound 0.01581 µM) was 0.35, the relative viability (EKVX; first compound 0.05 µM) was 0.333 and the relative viability (EKVX; first compound 0.1581 µM) was 0.272. The relative viability (EKVX; first compound 0.5 µM) was 0.19, the relative viability (H3255; first compound 0.005 µM) was 0.586 and the relative viability (H3255; first compound 0.01581 µM) was 0.644. It also gave a relative viability (H3255; first compound 0.05 µM) of 0.786, a relative viability (H3255; first compound 0.1581 µM) of 0.604 and a relative viability (H3255; first compound 0.5 µM) of 0.488. It also gave a relative viability (HCC-15; first compound 0.005 µM) of 0.413, a relative viability (HCC-15; first compound 0.01581 µM) of 0.57 and a relative viability (HCC-15; first compound 0.05 µM) of 0.577. For the same compound, the relative viability (HCC-15; first compound 0.1581 µM) was 0.461, the relative viability (HCC-15; first compound 0.5 µM) was 0.354 and the relative viability (HCC-827; first compound 0.005 µM) was 0.32. It also gave a relative viability (HCC-827; first compound 0.01581 µM) of 0.282, a relative viability (HCC-827; first compound 0.05 µM) of 0.286 and a relative viability (HCC-827; first compound 0.1581 µM) of 0.187. It also gave a relative viability (HCC-827; first compound 0.5 µM) of 0.172, a relative viability (LCLC-97TM1; first compound 0.005 µM) of 0.248 and a relative viability (LCLC-97TM1; first compound 0.01581 µM) of 0.247. It also gave a relative viability (LCLC-97TM1; first compound 0.05 µM) of 0.235, a relative viability (LCLC-97TM1; first compound 0.1581 µM) of 0.207 and a relative viability (LCLC-97TM1; first compound 0.5 µM) of 0.174. It also gave a relative viability (LK-2; first compound 0.005 µM) of 0.213, a relative viability (LK-2; first compound 0.01581 µM) of 0.185 and a relative viability (LK-2; first compound 0.05 µM) of 0.168. For the same compound, the relative viability (LK-2; first compound 0.1581 µM) was 0.157, the relative viability (LK-2; first compound 0.5 µM) was 0.215 and the relative viability (NCI-H1355; first compound 0.005 µM) was 0.52. It also gave a relative viability (NCI-H1355; first compound 0.01581 µM) of 0.524, a relative viability (NCI-H1355; first compound 0.05 µM) of 0.484 and a relative viability (NCI-H1355; first compound 0.1581 µM) of 0.269. For the same compound, the relative viability (NCI-H1355; first compound 0.5 µM) was 0.314, the relative viability (NCI-H1650; first compound 0.005 µM) was 0.294 and the relative viability (NCI-H1650; first compound 0.01581 µM) was 0.33. For the same compound, the relative viability (NCI-H1650; first compound 0.05 µM) was 0.303, the relative viability (NCI-H1650; first compound 0.1581 µM) was 0.26 and the relative viability (NCI-H1650; first compound 0.5 µM) was 0.213. For the same compound, the relative viability (NCI-H1734; first compound 0.005 µM) was 0.245, the relative viability (NCI-H1734; first compound 0.01581 µM) was 0.232 and the relative viability (NCI-H1734; first compound 0.05 µM) was 0.178. The relative viability (NCI-H1734; first compound 0.1581 µM) was 0.117, the relative viability (NCI-H1734; first compound 0.5 µM) was 0.112 and the relative viability (NCI-H1755; first compound 0.005 µM) was 0.492. It also gave a relative viability (NCI-H1755; first compound 0.01581 µM) of 0.452, a relative viability (NCI-H1755; first compound 0.05 µM) of 0.421 and a relative viability (NCI-H1755; first compound 0.1581 µM) of 0.273. The relative viability (NCI-H1755; first compound 0.5 µM) was 0.344, the relative viability (NCI-H1975; first compound 0.005 µM) was 0.681 and the relative viability (NCI-H1975; first compound 0.01581 µM) was 0.799. For the same compound, the relative viability (NCI-H1975; first compound 0.05 µM) was 0.728, the relative viability (NCI-H1975; first compound 0.1581 µM) was 0.317 and the relative viability (NCI-H1975; first compound 0.5 µM) was 0.206. The relative viability (NCI-H2228; first compound 0.005 µM) was 0.144, the relative viability (NCI-H2228; first compound 0.01581 µM) was 0.204 and the relative viability (NCI-H2228; first compound 0.05 µM) was 0.207. It also gave a relative viability (NCI-H2228; first compound 0.1581 µM) of 0.0929, a relative viability (NCI-H2228; first compound 0.5 µM) of 0.105 and a relative viability (NCI-H2342; first compound 0.005 µM) of 0.507. The relative viability (NCI-H2342; first compound 0.01581 µM) was 0.616, the relative viability (NCI-H2342; first compound 0.05 µM) was 0.496 and the relative viability (NCI-H2342; first compound 0.1581 µM) was 0.506. For the same compound, the relative viability (NCI-H2342; first compound 0.5 µM) was 0.459, the relative viability (NCI-H2405; first compound 0.005 µM) was 0.66 and the relative viability (NCI-H2405; first compound 0.01581 µM) was 0.712. The relative viability (NCI-H2405; first compound 0.05 µM) was 0.56, the relative viability (NCI-H2405; first compound 0.1581 µM) was 0.429 and the relative viability (NCI-H2405; first compound 0.5 µM) was 0.371. For the same compound, the relative viability (NCI-H322M; first compound 0.005 µM) was 0.454, the relative viability (NCI-H322M; first compound 0.01581 µM) was 0.416 and the relative viability (NCI-H322M; first compound 0.05 µM) was 0.432. For the same compound, the relative viability (NCI-H322M; first compound 0.1581 µM) was 0.364, the relative viability (NCI-H322M; first compound 0.5 µM) was 0.303 and the relative viability (NCI-H520; first compound 0.005 µM) was 0.416. For the same compound, the relative viability (NCI-H520; first compound 0.01581 µM) was 0.463, the relative viability (NCI-H520; first compound 0.05 µM) was 0.478 and the relative viability (NCI-H520; first compound 0.1581 µM) was 0.415. The relative viability (NCI-H520; first compound 0.5 µM) was 0.494, the relative viability (NCI-H661; first compound 0.005 µM) was 0.371 and the relative viability (NCI-H661; first compound 0.01581 µM) was 0.368. It also gave a relative viability (NCI-H661; first compound 0.05 µM) of 0.351, a relative viability (NCI-H661; first compound 0.1581 µM) of 0.349 and a relative viability (NCI-H661; first compound 0.5 µM) of 0.364. It also gave a relative viability (PC-14; first compound 0.005 µM) of 0.404, a relative viability (PC-14; first compound 0.01581 µM) of 0.448 and a relative viability (PC-14; first compound 0.05 µM) of 0.248. The relative viability (PC-14; first compound 0.1581 µM) was 0.157, the relative viability (PC-14; first compound 0.5 µM) was 0.0594 and the relative viability (PC-3 [JPC-3]; first compound 0.005 µM) was 0.726. The relative viability (PC-3 [JPC-3]; first compound 0.01581 µM) was 0.826, the relative viability (PC-3 [JPC-3]; first compound 0.05 µM) was 0.966 and the relative viability (PC-3 [JPC-3]; first compound 0.1581 µM) was 0.704. It also gave a relative viability (PC-3 [JPC-3]; first compound 0.5 µM) of 0.665, a relative viability (RERF-LC-KJ; first compound 0.005 µM) of 0.385 and a relative viability (RERF-LC-KJ; first compound 0.01581 µM) of 0.512. It also gave a relative viability (RERF-LC-KJ; first compound 0.05 µM) of 0.353, a relative viability (RERF-LC-KJ; first compound 0.1581 µM) of 0.393 and a relative viability (RERF-LC-KJ; first compound 0.5 µM) of 0.266.
